{"source": "the NIST ThermoML archive (doi:10.1021/je200038n)", "key": {"[1]": {"experiment": "molar heat capacity at constant pressure; wn = mass fraction of the nth substance listed", "settings": "3000 kPa, Liquid, Flow calorimetry, w1 = 1"}, "[2]": {"experiment": "molar heat capacity at constant pressure", "settings": "3000 kPa, Liquid, Flow calorimetry"}}, "note": "Numbers after ± are expanded uncertainties.", "data": [{"smiles": "N", "note": "[ammonia] + N#C[S-].[Na+]", "values": [{"measurement": "molar heat capacity at constant pressure", "setting": "[1]; 304.17 K", "result": "82.46 ± 0.53", "unit": "J/K/mol"}, {"measurement": "molar heat capacity at constant pressure", "setting": "[1]; 314.14 K", "result": "83.45 ± 0.53", "unit": "J/K/mol"}, {"measurement": "molar heat capacity at constant pressure", "setting": "[1]; 324.11 K", "result": "85.83 ± 0.53", "unit": "J/K/mol"}, {"measurement": "molar heat capacity at constant pressure", "setting": "[1]; 334.09 K", "result": "89.36 ± 0.53", "unit": "J/K/mol"}]}, {"smiles": "N", "note": "[ammonia]", "values": [{"measurement": "molar heat capacity at constant pressure", "setting": "[2]; 304.17 K", "result": "82.46 ± 0.53", "unit": "J/K/mol"}, {"measurement": "molar heat capacity at constant pressure", "setting": "[2]; 314.14 K", "result": "83.45 ± 0.53", "unit": "J/K/mol"}, {"measurement": "molar heat capacity at constant pressure", "setting": "[2]; 324.11 K", "result": "85.83 ± 0.53", "unit": "J/K/mol"}, {"measurement": "molar heat capacity at constant pressure", "setting": "[2]; 334.09 K", "result": "89.36 ± 0.53", "unit": "J/K/mol"}]}]}
